Some results are limits rather than exact numbers.

Data on twelve compounds can be found in US20060063785A1, “Substituted pyrazolo[1,5-a] pyrimidines and process for making same” (priority 2004, published 2006).

Test system in the first series: not given
Assay: not given
Conditions: not given
The melting point is the temperature of the solid-liquid transition. Take `O=C(Nc1cccc(-c2ccnc3c(C(=O)c4cccs4)cnn23)c1)OCC(Cl)(Cl)Cl` [Example 12, 2,2,2-trichloroethyl 3-[3-(thien-2-ylcarbonyl)pyrazolo[1,5-a]pyrimidin-7-yl]phenylcarbamate]: the melting point lay within 197 to 200 °C. `COc1ccccc1/C=C/CNc1cccc(-c2ccnc3c(C(=O)c4cccs4)cnn23)c1` [Example 288, [7-(3-{[(2E)-3-(2-Methoxyphenyl)prop-2-enyl]amino}phenyl)pyrazolo[1,5-a]pyrimidin-3-yl](thien-2-yl)methanone] came in with a melting point of 128 to 131 °C. With `CC(C)NC(=N)Nc1cccc(-c2ccnc3c(C(=O)c4cccs4)cnn23)c1` [Example 301, N-Isopropyl-N′-{3-[3-(thien-2-ylcarbonyl)pyrazolo[1,5-a]pyrimidin-7-yl]phenyl}guanidine], the melting point was more than 200 °C. For the compound `CC(C)NC(=NC#N)Nc1cccc(-c2ccnc3c(C(=O)c4cccs4)cnn23)c1` [Example 304, N″-Cyano-N-isopropyl-N′-{3-[3-(thien-2-ylcarbonyl)pyrazolo[1,5-a]pyrimidin-7-yl]phenyl}guanidine], the melting point is 240 to 241 °C. `O=C(Nc1cccc(-c2ccnc3c(C(=O)c4cccs4)cnn23)c1)OCCCN1CCS(=O)(=O)CC1` [Example 309, 3-(1,1-Dioxidothiomorpholin-4-yl)propyl 3-[3-(thien-2-ylcarbonyl)pyrazolo[1,5-a]pyrimidin-7-yl]phenylcarbamate] returned a melting point of 148 to 159 °C. Take `CCC(C)C(C)CNc1cccc(-c2ccnc3c(C(=O)c4cccs4)cnn23)c1` (stereo not shown) [Example 318]: the melting point is 84 to 86 °C.

Take `C/C=C(\C)CNc1cccc(-c2ccnc3c(C(=O)c4cccs4)cnn23)c1` [Example 319]: the melting point was in the range of 118 to 120 °C. With `CC/C=C/CNc1cccc(-c2ccnc3c(C(=O)c4cccs4)cnn23)c1` [Example 320], the melting point is 72 to 75 °C.

Compound `C=C(C)CNc1cccc(-c2ccnc3c(C(=O)c4cccs4)cnn23)c1` [Example 322] came in with a melting point of 104 to 106 °C.

`C=C(CC)CNc1cccc(-c2ccnc3c(C(=O)c4cccs4)cnn23)c1` [Example 323] displayed a melting point of 79 to 82 °C.

`O=C(O)c1ccccc1C(=O)Nc1cccc(-c2ccnc3c(C(=O)c4cccs4)cnn23)c1` [Example 331, 2-[({3-[3-(Thien-2-ylcarbonyl)pyrazolo[1,5-a]pyrimidin-7-yl]phenyl}amino)carbonyl]benzoic acid] returned a melting point of 215 to 216 °C. Compound `CC(C)CC(=O)Nc1cccc(-c2ccnc3c(-c4cccc(N)c4)cnn23)c1` [Example 352, N-{3-[3-(3-Aminophenyl)pyrazolo[1,5-a]pyrimidin-7-yl]phenyl}-3-methylbutanamide] came in with a melting point of 173 to 175 °C.

Another series has as its system 80S14 (p21-deficient) cells. As to the kind of experiment: Determination of selectivity of compounds for p21-/- cells: IC50 in 80S14 cells (SRB). Format: cell-based, human. Particulars: Homo sapiens, 120 h; 80S14 (p21-deficient) cells, 5 days at 37° C., SRB; read-out: IC50 for 80S14.
Broadly, the IC50 is the concentration at which inhibition is half-maximal. As for `O=C(Nc1cccc(-c2ccnc3c(C(=O)c4cccs4)cnn23)c1)OCC(Cl)(Cl)Cl` [Example 12, 2,2,2-trichloroethyl 3-[3-(thien-2-ylcarbonyl)pyrazolo[1,5-a]pyrimidin-7-yl]phenylcarbamate], the concentration for half-maximal inhibition (IC50) is less than 1000 nM.
